Test system: IMR90 fibroblasts, CD4+ and CD8+ T cells, CD34+ cells
Experiment: Senescence and heterochromatic hypomethylation with cell division/aging, rescue with Vitamin C
Type: cell-based, human
Conditions: activator of TET proteins
Excerpt: Example 9: The inventors investigated heterochromatin dysfunction as a function of both cellular age and number of cell divisions, using multiple cellular systems: IMR90 fibroblasts, freshly isolated CD4+ and CD8+ T cells from young and old human donors, and commercially available CD34^+ cells (enriched for hematopoietic precursor cells) from human newborns (cord blood) and older adults.
Tet1/2/3 triple-foxed (Tet1/2/3 Tfl) RosaYFP^LSL or RosaYFP^LSL mice were used, left […] with tamoxifen; (ii) DNMT3a (or multiple Dnmt) foxed mice, also bearing the RosaYFP^LSL reporter and left […] with tamoxifen. Mouse fibroblasts have a longer passage time to senescence, so IMR90 human fibroblasts in which partial TET or DNMT loss-of-function was induced by genome editing were also used.

## O=C1O[C@H]([C@@H](O)CO)C(O)=C1O [Vitamin C]
  hypomethylation observed with cell division and/or aging: can be rescued
  time to senescence: can be delayed

Reference: patent US20230042198A1, “Methods and Compositions for Modulationg Heterochromatin Dysfunction, Genomic Instability, and Associate Conditions” (La Jolla Institute for Immunology, priority 2019, published 2023)
